In patent US6875872B1, “Compounds” (AstraZeneca, priority 1993, dated 2005):

Experiments:
[1] = Stability towards racemization at different pH values (aqueous buffer solutions, refrigerator, optical purity by chiral column chromatography); type: physicochemical; conditions: for racemization (stereochemical stability): after 16 days
Protocol: Stability Towards Racemization at Different pH Values
The stability of the optically pure compounds of the invention against racemization has been measured at low concentrations in a refrigerator in aqueous buffer solutions at pH 8, 9.3, 10 and 11.2. The stereochemical stability was measured by comparing the optical purity for the (−)-isomer of 5-methoxy-2-[[(4-methoxy-3,5-dimethyl-2-pyridinyl)-methyl]sulfinyl]-1H-benzimidazole in buffer solution immediately after dissolving and after several days. The measurement was performed by chromatography on an analytical chiral column.

[2] = Racemization experiment in aqueous phosphate buffer pH 11 warmed at 37° C.; type: physicochemical; conditions: aqueous phosphate buffer solution pH=11, c=10^-5 M, 26 hours at 37° C.

Row | SMILES | racemization (stereochemical stability) ([1]; aqueous buffer solution pH 8, refrigerator) | racemization (stereochemical stability) ([1]; aqueous buffer solution pH 9.3, refrigerator) | racemization (stereochemical stability) ([1]; aqueous buffer solution pH 10, refrigerator) | racemization (stereochemical stability, optical purity immediately after dissolving vs after several days) ([1]; aqueous buffer solution pH 11.2, refrigerator, low concentration, after 21 days) | chemical degradation of the compound ([1]; aqueous buffer solutions pH 8, 9.3 and 10, refrigerator (compared with pH 11.2)) | racemization [2]
1 | COc1ccc2[nH]c([S+]([O-])Cc3ncc(C)c(OC)c3C)nc2c1 (single isomer, unassigned; (-)) [(−)-5-methoxy-2-[[(4-methoxy-3,5-dimethyl-2-pyridinyl)methyl]-sulfinyl]-1H-benzimidazole] | at none of these pH values a detectable racemization was obtained | at none of these pH values a detectable racemization was obtained | at none of these pH values a detectable racemization was obtained | no racemization | more apparent | –
2 | COc1ccc2[nH]c([S+]([O-])Cc3ncc(C)c(OC)c3C)nc2c1.[Na+] (single isomer, unassigned; (+)) [(+)-5-methoxy-2-[[(4-methoxy-3,5-dimethyl-2-pyridinyl)methyl]sulfinyl]-1H-benzimidazole sodium salt] | – | – | – | – | – | without any racemization at all being observed
